The source of these data is article PMC6339655 (International Journal of Nanomedicine, 2019).

In the assay the test system is C. albicans (ATCC-90028). The assay is described as follows: MIC by colony-forming assay. Type of assay: cell-based. Particulars: Candida albicans, ATCC90028, 48 h.

The structures appear in SMILES notation. Values after ≈ are worked out from the molar mass of the structure shown.

The term MIC denotes the lowest concentration found to suppress growth. Consider `C[C@@H]1C/C=C/C=C/C=C/C=C/[C@H](O[C@@H]2O[C@H](C)[C@@H](O)[C@H](N)[C@@H]2O)C[C@@H]2O[C@](O)(C[C@@H](O)C[C@H]3O[C@@H]3/C=C/C(=O)O1)C[C@H](O)[C@H]2C(=O)O` [natamycin], for which the MIC was determined as 64 µg/mL (≈ 96.1 µM).
